Laboratory results taken from patent US20020102262A1, “Collagen binding protein compositions and methods of use” (priority 1996, published 2002).
Several values for one entry are separate records, joined by “and”; a condition that tells them apart may be missing. Identical values can stand only once.

Legend:
αCBD(151-297) IgG [1] = experiment: ELISA reactivity of αCBD(151-297) IgG with eight 25-amino-acid synthetic CBD peptides; type: binding, rabbit; conditions: 25-amino-acid synthetic peptides as targets
Experimental: Rabbits were immunized with […] as described. Sera were also collected prior to immunization and tested for reactivity to CBD(151-297). The reactivity of the antiserum with different segments of CBD(151-297) was tested in an ELISA using a series of eight 25-amino-acid long synthetic peptides with partially overlapping sequences as targets. Purified IgG reacted strongly with peptides 2, 3, 5, 6, and 7 and weakly with peptides 1, 4, and 8. When preimmune IgG was tested with the CBD peptides, little reaction could be detected. The relative immunological reactivity of the different peptides correlated closely with their antigenic index using the algorithm of Jameson and Wolf (1988).

S. aureus = experiment: Inhibition of binding of 125I-labeled type II Col to S. aureus cells; set-up: species or system Staphylococcus aureus
Experimental: Purified αCBD(151-297) IgG inhibited the binding of S. aureus to ^125I-labeled Col in a dose-dependent manner.
(§1) To further investigate the interaction between peptide CBD4 and αCBD(151-297) IgG and its affect on Col binding, a fixed concentration of the antibody was incubated with an increasing amount of peptide CBD4. […] Thus, a relatively small reduction in inhibition could be easily detected.
Peptide CBD7 which reacted strongly with αCBD(151-297) IgG in the ELISA assay was also tested. […] Five μM CBD4 inhibited binding by over 50%.
To identify residues within CBD4 necessary for Col binding synthesized several smaller overlapping peptides were synthesized. A series of peptides that contained a 2 amino-terminal residues and one peptide that contained a 2 amino acid deletion at the carboxyl terminus were made. The peptides (10 μM) were assayed for their ability to inhibit the binding of ^1251I-labeled Col to S. aureus. Peptide CBD4 inhibited Col binding by 76%, whereas all peptides containing amino-terminal truncations had little activity at the concentration tested.

αCBD(151-297) IgG [2] = experiment: Neutralization of the inhibitory activity of αCBD(151-297) IgG by synthetic CBD peptides; type: binding, rabbit
Experimental: The different synthetic CBD peptides described above and shown to react with the αCBD(151-297) IgG were assayed for their potential to neutralize the inhibitory activity of the antibody. The αCBD(151-297) IgG (12 μg) was preincubated with a single dose (100 μg) of each peptide in step one. The S. aureus cells were then added and the preincubation continued. Finally, the ^125I-labeled type II Col was added. Peptide CBD4 neutralized 68% of αCBD(151-297) IgG inhibitory activity, while the other peptides tested had little or no effect. […] Although other peptide sequences were more immunogenic than CBD4, the antibodies recognizing the corresponding epitopes were not inhibitory.
as §1

[3] = biological target: type II Col (collagen type II); experiment: BIAcore, immobilized type II Col; Scatchard analysis or Equation 1
Sequence of type II Col (collagen type II) (P02459 182-1241): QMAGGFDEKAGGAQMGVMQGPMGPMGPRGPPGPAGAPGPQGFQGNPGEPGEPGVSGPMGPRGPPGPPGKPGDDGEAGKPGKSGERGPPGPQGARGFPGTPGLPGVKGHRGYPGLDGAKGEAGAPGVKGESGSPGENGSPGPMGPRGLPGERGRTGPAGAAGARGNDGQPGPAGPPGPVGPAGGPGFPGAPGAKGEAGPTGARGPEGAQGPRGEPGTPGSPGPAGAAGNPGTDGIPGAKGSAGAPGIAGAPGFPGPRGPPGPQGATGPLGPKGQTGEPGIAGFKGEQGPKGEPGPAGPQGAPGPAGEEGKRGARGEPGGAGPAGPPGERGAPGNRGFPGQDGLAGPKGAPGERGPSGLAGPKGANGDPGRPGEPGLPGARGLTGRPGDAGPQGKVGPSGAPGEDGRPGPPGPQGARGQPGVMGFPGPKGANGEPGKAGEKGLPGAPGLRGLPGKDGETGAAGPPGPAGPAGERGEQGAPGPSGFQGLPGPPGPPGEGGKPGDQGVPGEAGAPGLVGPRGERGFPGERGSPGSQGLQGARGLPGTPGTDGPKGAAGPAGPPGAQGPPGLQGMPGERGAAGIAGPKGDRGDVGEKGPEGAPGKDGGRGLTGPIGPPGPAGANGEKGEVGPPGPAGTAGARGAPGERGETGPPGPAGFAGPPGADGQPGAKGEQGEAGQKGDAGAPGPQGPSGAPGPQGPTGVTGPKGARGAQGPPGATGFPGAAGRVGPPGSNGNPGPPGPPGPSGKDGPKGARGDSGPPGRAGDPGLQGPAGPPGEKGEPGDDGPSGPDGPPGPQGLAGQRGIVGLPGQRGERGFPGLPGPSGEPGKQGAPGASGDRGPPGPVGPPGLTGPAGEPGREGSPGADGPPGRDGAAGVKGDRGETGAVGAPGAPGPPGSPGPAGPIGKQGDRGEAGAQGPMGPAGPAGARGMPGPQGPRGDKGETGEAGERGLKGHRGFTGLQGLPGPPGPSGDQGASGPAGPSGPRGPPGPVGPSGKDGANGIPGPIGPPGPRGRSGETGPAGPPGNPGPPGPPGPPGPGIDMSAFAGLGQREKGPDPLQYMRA

[4] = biological target: type II Col (collagen type II); experiment: BIAcore, immobilized type II Col; three-component dissociation, the slowest component
[5] = biological target: type II Col (collagen type II); experiment: BIAcore, immobilized type II Col; three-component dissociation, the two fastest components
M55 = M55 (Staphylococcus aureus, UniProt Q53654); conditions: animals immunized with M55 and infected with a sub-lethal dose S. aureus
Sequence of M55 (Q53654 18-529, looked up, natural form): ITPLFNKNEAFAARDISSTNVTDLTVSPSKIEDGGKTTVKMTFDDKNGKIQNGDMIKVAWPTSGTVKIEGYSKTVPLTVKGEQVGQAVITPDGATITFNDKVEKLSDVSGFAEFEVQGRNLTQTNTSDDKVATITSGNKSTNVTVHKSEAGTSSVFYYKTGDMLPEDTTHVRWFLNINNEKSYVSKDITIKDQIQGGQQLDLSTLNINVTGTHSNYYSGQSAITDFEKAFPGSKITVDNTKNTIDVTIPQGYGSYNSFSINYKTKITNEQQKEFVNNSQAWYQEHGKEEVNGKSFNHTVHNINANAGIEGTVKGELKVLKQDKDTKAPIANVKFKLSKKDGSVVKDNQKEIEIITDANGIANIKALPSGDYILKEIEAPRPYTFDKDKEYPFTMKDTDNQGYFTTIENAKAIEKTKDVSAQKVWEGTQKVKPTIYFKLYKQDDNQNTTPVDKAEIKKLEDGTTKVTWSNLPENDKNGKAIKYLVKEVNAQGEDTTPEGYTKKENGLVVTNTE
Experimental: Serum level of specific antibodies against the collagen adhesion peptide M55 was measured by an enzyme-linked immunosorbent assay (ELISA). 96-well microplates (Nunc) were coated overnight at 4° C. with 2 μg/ml of M55 peptide. Blocking was done with 0.5% ovalbumin (Sigma Chemical Co., St. Louis, MO) dissolved in 0.05 M Tris (pH 7.7). Sera, biotinylated antibodies, the ExtrAvidin-peroxidase (Sigma) were all diluted in 0.05 M Tris (pH7.4)-0.015 M NaCl. The plates were incubated overnight at 4° C. with sera, washed and incubated stepwise with biotinylated goat anti-mouse IgG antibody (Jackson Immuno Research Laboratories, Inc., West Grove, PA), ExtrAvidin-peroxidase (0.5 μg/ml; Sigma) and ABTS substrate. The A405 was measured in a Titertec Multiscan photometer (Flow Laboratories, McLean, Va.). […] OVA was used as control solid antigen.

[6] = system: strain of S. aureus that does not express the Col-binding MSCRAMM; experiment: Mouse sepsis control study, challenge with S. aureus not expressing the Col-binding MSCRAMM; type: in vivo; conditions: immunized mice, challenge strain without Col-binding MSCRAMM
Description: The mortality in the M55 group was 50% compared to 30% in the BSA group.

[7] = system: S. aureus strain Phillips; experiment: Mouse sepsis model, active immunization, intravenous challenge with S. aureus expressing CBP; type: in vivo, mice
Description: Gram-positive bacteria related sepsis is on the increase. In fact between one-third and one-half of all cases of sepsis are caused by gram-positive bacteria, particularly S. aureus and S. epidermidis. In the United States, it can be estimated that over 200,000 patients will develop gram-positive related sepsis this year. […] Mice were immunized subcutaneously with either M55 or a control antigen (bovine serum albumin) and then challenged intravenously with S. aureus. Eighty-three percent (35/42) of the mice immunized with M55 survived compared to only 27% of the BSA immunized mice (12/45). This is a compilation of 3 separate studies.
Day -31: 100μg/mouse of a CBP Epitope (i.e. M17, M31, or M55) or BSA emulsified with Freund's Complete adjuvant (Difco Laboratories) as a control.
Day -18: 100μg/mouse of a CBP Epitope (ie. M17, M31, or M55) or BSA dissolved in sterile phosphate buffered saline (PBS)
Day -7: 100μg/mouse of a CBP Epitope (i.e. M17, M31, or M55) or BSA dissolved in PBS
Day 0: inoculate intravenously S. aureus strain Phillips (which expresses CBP) (Dose: 2.8×10^7 cfu/mouse)
Day 14: end of study; all surviving mice were euthanized.

[8] = biological target: type II Col (collagen type II); experiment: peptide at 10 µM, inhibition of ^125I-labeled Col binding to S. aureus cells
[9] = biological target: type II Col (collagen type II); experiment: peptide (5 µM) incubated with ^125I-Col before addition of S. aureus cells
immobilized type II Col = immobilized type II Col (Homo sapiens, UniProt P02458); experiment: BIAcore analysis of CBD(30-529) and mutants on immobilized type II Col; type: binding
Sequence of immobilized type II Col (P02458 182-1241 limits assumed): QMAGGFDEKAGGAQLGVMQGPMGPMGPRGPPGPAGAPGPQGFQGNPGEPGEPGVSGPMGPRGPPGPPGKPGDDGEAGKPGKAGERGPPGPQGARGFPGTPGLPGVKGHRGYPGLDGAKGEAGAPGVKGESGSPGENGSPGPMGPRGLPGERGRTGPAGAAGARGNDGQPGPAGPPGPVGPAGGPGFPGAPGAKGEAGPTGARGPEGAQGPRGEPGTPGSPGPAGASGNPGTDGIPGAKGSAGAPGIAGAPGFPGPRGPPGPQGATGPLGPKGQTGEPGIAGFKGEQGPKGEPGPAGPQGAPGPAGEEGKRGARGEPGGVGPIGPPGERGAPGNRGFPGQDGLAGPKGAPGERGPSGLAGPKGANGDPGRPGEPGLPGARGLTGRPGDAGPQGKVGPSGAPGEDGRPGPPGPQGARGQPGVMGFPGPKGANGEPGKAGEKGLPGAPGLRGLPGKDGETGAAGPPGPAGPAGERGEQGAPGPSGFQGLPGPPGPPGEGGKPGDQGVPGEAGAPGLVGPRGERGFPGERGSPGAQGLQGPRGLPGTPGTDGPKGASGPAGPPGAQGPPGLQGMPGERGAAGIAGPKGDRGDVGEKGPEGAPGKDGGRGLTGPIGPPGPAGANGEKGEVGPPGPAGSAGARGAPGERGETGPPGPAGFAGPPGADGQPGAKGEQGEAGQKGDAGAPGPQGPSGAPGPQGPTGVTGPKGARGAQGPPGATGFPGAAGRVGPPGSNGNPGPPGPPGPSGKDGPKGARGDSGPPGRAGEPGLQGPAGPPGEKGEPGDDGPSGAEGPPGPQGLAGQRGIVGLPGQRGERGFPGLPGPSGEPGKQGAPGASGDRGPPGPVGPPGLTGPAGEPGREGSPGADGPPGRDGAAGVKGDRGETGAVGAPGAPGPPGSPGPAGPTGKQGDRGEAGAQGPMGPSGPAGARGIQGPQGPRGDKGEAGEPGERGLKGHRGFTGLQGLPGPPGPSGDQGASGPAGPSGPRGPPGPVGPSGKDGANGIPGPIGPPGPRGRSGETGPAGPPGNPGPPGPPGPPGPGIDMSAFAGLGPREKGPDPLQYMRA
Description: The importance of amino acid residues Asn^232 and Tyr ^33 in the MSCRAMM for Col binding was examined by creating specific mutants of CBD (30-529) and characterizing the interactions of these mutants with immobilized type II Col using the BlAcore. In the mutations made, the identified amino acid residues were replaced individually, (N^232 →A, Y^233 →A) or as a pair, (N^232 →A:Y^233→A) with alanine, a residue that is not expected to interfere with the existing secondary structure. The corresponding base changes were made using overlap extension PCR™ as described and the sequence changes confirmed experimentally. The recombinant proteins containing the mutations were purified to homogeneity by metal ion chelating chromatography.
True equilibrium was not obtained during the injection time period due to the slow dissociation rate (koff). […] The dissociation phase gives information about the koff, and this rate is independent of the number of binding sites, analyte concentration, and flow rate. […] The association phase contains the information to determine the association rate koff the interaction, but it is also influenced by the dissociation rate, the number of binding sites for each interaction, and the concentration of the analyte. Because of the complexity of this interaction and the absence of measurable equilibrium data, it was not possible to determine the binding constant (KD), apparent binding ratio (BRapp), and kon.

[10] = subcutaneous immunization, intravenous challenge, compilation of 3 separate studies

Molecule: CBD4: 25-amino-acid synthetic peptide, amino acids 209-233 (Asp209 to Tyr233) of S. aureus CBP (DQIQGGQQLDLSTLNINVTGTHSNY)
- reactivity with purified αCBD(151-297) IgG in ELISA (αCBD(151-297) IgG [1]): weakly
- inhibition of 125I-Col binding to S. aureus (S. aureus; Five μM peptide incubated with 125I-Col before S. aureus): over 50%
- direct inhibition of 125I-Col binding to S. aureus (S. aureus; increasing amounts of peptide preincubated with 125I-Col): inhibited in a dose-dependent manner
- inhibition of binding of 125I-labeled Col to S. aureus (S. aureus; peptide 10 μM): 76%
- effect of peptide on Col binding to S. aureus in presence of αCBD(151-297) IgG (αCBD(151-297) IgG [2]; 100 μg peptide, IgG 12 μg/ml): restored the level of Col binding to S. aureus observed in absence of αCBD(151-297) IgG
- neutralization of αCBD(151-297) IgG inhibitory activity (αCBD(151-297) IgG [2]; IgG 12 μg preincubated with single dose 100 μg peptide): 68%

Molecule: CBD (30-529) N^232→A:Y^233→A (from UniProt Q53654 30-529)
- BRapp (apparent binding ratio) [3]: 2 sites and 3 sites

Molecule: CBD (30-529), recombinant S. aureus Col MSCRAMM fragment (wild type) (from UniProt Q53654 30-529)
- koff [4]: 0.0005 s⁻¹
- koff [5]: > 0.01 s⁻¹

Molecule: M55: recombinant His-tagged S. aureus Col-binding MSCRAMM derivative, amino acids 30-531 of full length CBP (SEQ ID NO:6)
- anti-M55 IgG (Col MSCRAMM) titers (M55): 32×10^9 units/ml
- mortality [6]: 50%
- mice died/total ([7]; 100μg/mouse on days -31, -18, -7, 2.8×10^7 cfu/mouse i.v. day 0, end day 14): 4/11
- protection against sepsis ([7]; in words): highly effective in protecting against sepsis
- percent of mice surviving [7, 10]: Eighty-three
- surviving mice/total mice [7, 10]: 35/42

Molecule: Peptide CBD4 (from UniProt Q53654 209-233)
- percent inhibition of ^125I-labeled Col binding to S. aureus [8]: 76%
- percent inhibition of ^125I-Col binding to S. aureus [9]: > 50%

B1: double mutant (protein)
chain: ARDISSTNVTDLTVSPSKIEDGGKTTVKMTFDDKNGKIQNGDMIKVAWPTSGTVKIEGYSKTVPLTVKGEQVGQAVITPDGATITFNDKVEKLSDVSGFAEFEVQGRNLTQTNTSDDKVATITSGNKSTNVTVHKSEAGTSSVFYYKTGDMLPEDTTHVRWFLNINNEKSYVSKDITIKDQIQGGQQLDLSTLNINVTGTHSAAYSGQSAITDFEKAFPGSKITVDNTKNTIDVTIPQGYGSYNSFSINYKTKITNEQQKEFVNNSQAWYQEHGKEEVNGKSFNHTVHNINANAGIEGTVKGELKVLKQDKDTKAPIANVKFKLSKKDGSVVKDNQKEIEIITDANGIANIKALPSGDYILKEIEAPRPYTFDKDKEYPFTMKDTDNQGYFTTIENAKAIEKTKDVSAQKVWEGTQKVKPTIYFKLYKQDDNQNTTPVDKAEIKKLEDGTTKVTWSNLPENDKNGKAIKYLVKEVNAQGEDTTPEGYTKKENGLVVTNTE
- affinity and apparent binding ratio compared to wild type (immobilized type II Col): even more significant decreasesin affinity and apparent binding ratio
- apparent binding ratio (BRapp) (immobilized type II Col; Scatchard analysis or Equation 1): approximately two to three high affinity sites
